Values belong to the molecule of their own block, whether it stands above or below them.
Assays:
[1] = PK of ARV-110 API, i.v. injection vs oral capsule, fasted beagle dogs (absolute oral bioavailability); assay type: in vivo; conditions: for AUC(0-inf) / AUC(0-t) / Cmax: fasted condition, geometric mean
Description: The XRPD testing was performed on both API only (ARV-110) and the ASD formulation Batch No. P210803 using D2-Phasher (Bruker) equipment, and with the following parameters: generator, 30.0 kV/10.0 mA; detector, Lynxeye; wavelength, Cu Kal(1.54060); scan mode, continuous PSD fast; scan range, 4-40 degree; step Size, 0.01 degree; time/step, 0.5 s; sample stage rotation, 15 r/min. […] P210803 were in amorphous state. ARV-110 is still under developing in clinical stage. To measure the absolute oral bioavailability, the capsule filled with ARV-110 API was prepared only for oral administration in fasted condition. API was dissolved in DMA and Solutol mixed solution for injection. Three beagle dogs were tested in two dosing groups, one group was for oral, 50 mg dose per dog, and the other group for injection, 5 mg dose per dog. During the study, the dogs were allowed to drink water freely and were fasted for 12 hours before administration, all dogs were given food 4 hours after drug administration. Each dog was administered together with 50 ml water.
(§1) Blood samples were taken from each group of animals at the following time points: 0 h (before test drug administration), and 0.25, 0.5, 1, 1.5, 2, 4, 6, 8, 10, 24 h after the drug administration. ARV-110 plasma concentrations were analyzed by an LC-MS/MS method. The non-compartment model of software WinNonlin was used to calculate the pharmacokinetic parameters of each dog, Cmax, AUClast, and AUCinf. The geometric averages of each parameters were used for comparisons of the in vivo absorption under different dosing pretreatments.
The results shown in Table 3B include the geometric mean values as well as coefficient of variation (CV) of the pharmacokinetic parameters of the two dosing groups. […] The absolute bioavailability of ARV-110 is about 6.0%.

[2] = PK of ARV-110 API capsules, fasted vs high-fat fed beagle dogs; assay type: in vivo; conditions: API capsules 45 mg oral; for AUC(0-inf) / AUC(0-t) / Cmax: beagle, dog, in vivo, po, 45 mg, geometric mean
Description: Then, the capsule filled with ARV-110 API was prepared to compare the absorption advantage of our ASD formulation. Each capsule contained 45 mg ARV-110 API. The capsules were tested orally in three beagle dogs under two different dosing pretreatments (with or without high-fat food). During the study, the dogs were allowed to drink water freely and were fasted for 12 hours before administration, for the dosing pretreatment of the fasted condition, all dogs were given food 4 hours after drug administration. Each dog was administered together with 50 ml water. For the dosing pretreatment of the fed condition, all dogs were given a high-fat food 30 minutes prior to dosing.
as §1, with “and” for “and 0.25,”, “2, 3,” for “2,”, “4, 5,” for “4,”, “12, 24, 48, 72” for “24”, “AUClast” for “AUClast,”, “doing” for “dosing”
The results shown in Table 3C include the geometric mean values as well as coefficient of variation (CV) of the pharmacokinetic parameters of two dosing groups. […] The high-fat fed condition can enhance the oral absorption by about 6-folds compared to fasted condition.

[3] = Three-way crossover PK of ARV-110 API and ASD compositions, fed beagle dogs; conditions: in vivo, 50 mg API per dog oral, fed condition, geometric mean
Description: Blood samples were taken from each group of animals at the different time points after the drug administration. Plasma concentrations were analyzed by an LC-MS/MS method. The non-compartment model of software WinNonlin was used to calculate the pharmacokinetic parameters of each dog, Cmax, AUClast and AUCinf. The geometric averages of each parameters were used for comparisons of the in vivo absorption under different doing pretreatments.
The capsules were given at the dose of 50 mg API per dog for oral administration for each group in fed condition.

[4] = cited from earlier work
[5] = Table 1, footnote 1: Heimbach et al., J Pharm Sci 108 (2019); cited from earlier work
[6] = PK of ARV-471 API, oral fasted and fed and i.v., beagle dogs; assay type: in vivo; conditions: for AUC(0-inf) / AUC(0-t) / Cmax: geometric mean
Description: (§2) To investigate the oral absorption of ARV-110, two-way crossover or three-way crossover designs were performed. Six Beagle dogs were classified into two or three groups. Each group was administered capsules of different formulations comprising the API or API only at various dose to compare the API absorption in such formulations and also any difference in API absorption in fasted or fed conditions. Each dog was administered with 50 mL water in total. To measure the absolute bioavailability, i.v. injection of a solution comprising API was also performed. The API solution for i.v. injection was prepared by dissolving in DMA and Solutol mixed solution.
(§3) In fasted condition, the dogs were allowed to drink water freely and were fasted for 12 hours before administration, and then were given food 4 hours after drug administration.
(§4) In fed condition, the dogs were fed with high-fat food 30 mins before administration, according to the FDA guidance entitled “Assessing the effects of food on drug in INDs and NDAs-Clinical pharmacology considerations” published on Feb. 26, 2019.
as §1, with “different” for “following”, “points” for “points: 0 h (before test drug administration), and 0.25, 0.5, 1, 1.5, 2, 4, 6, 8, 10, 24 h”, “Plasma” for “ARV-110 plasma”, “AUClast” for “AUClast,”, “doing” for “dosing”
(§5) To investigate the oral absorption of ARV-471, the same study design and procedures as described in Example 3 were performed.
A three-dog, two-way crossover study was performed to evaluate oral bioavailability of ARV-471 API in beagle dogs in fasted and fed condition. A three-dog study was performed to measure the ARV-471 API bioavailability after i.v. injection in fasted condition. Each capsule was filled with 60 mg of API powder and a 6 mg/vial API solution was prepared. One capsule or one vial of API solution were administered to each dog according to the design of the two studies. The results shown in Table 5B include the geometric mean values as well as coefficient of variation (CV) of the pharmacokinetic parameters of the three dosing groups. […] The absolute bioavailability of ARV-471 API is about 7%, and high-fat food can enhance the oral absorption by 2 times.

[7] = Three-way crossover PK of ARV-471 API and ASD compositions, fed beagle dogs; assay type: in vivo; conditions: dog, plasma, 60 mg of API oral, fed condition, geometric mean
Description: as §2, §4
as §1, with “different” for “following”, “points” for “points: 0 h (before test drug administration), and 0.25, 0.5, 1, 1.5, 2, 4, 6, 8, 10, 24 h”, “Plasma” for “ARV-110 plasma”, “AUClast” for “AUClast,”, “doing” for “dosing”
as §5
A six-dog, three-way crossover study was performed to evaluate oral bioavailability of ARV-471 API and ASD compositions in beagle dogs in fed condition. There were three study groups, ARV471 API administered in fed condition ASD composition batch no. P220215-1 administered in fed condition, and ASD composition batch no. P220215-2 administered in fed condition, each containing 2 dogs. Capsules were filled with API powder, ASD composition from batch no. P220215-1 and ASD composition from batch no. P220215-2, respectively. […]

[8] = PK of ARV-471 API high dose, fasted vs fed beagle dogs; assay type: in vivo; conditions: for AUC(0-inf) / AUC(0-t) / Cmax: beagle, dog, plasma, po, 200 mg, API capsule 200 mg oral, geometric mean
Description: as §2, §3, §4
as §1, with “different” for “following”, “points” for “points: 0 h (before test drug administration), and 0.25, 0.5, 1, 1.5, 2, 4, 6, 8, 10, 24 h”, “Plasma” for “ARV-110 plasma”, “AUClast” for “AUClast,”, “doing” for “dosing”
as §5
A six-dog, two-way crossover study was performed to evaluate oral bioavailability of ARV-471 API dose escalation in beagle dogs in fasted and fed condition. There were two study groups, ARV-471 API orally administered in fasted condition and in fed condition, 200 mg of ARV-471 API was filled in each capsule. The capsules were given at the dose of 200 mg API per dog for oral administration for each group. The results shown in Table 5F include the geometric mean values as well as coefficient of variation (CV) of the pharmacokinetic parameters of two dosing groups.

[9] = beagle, in vivo, iv, I.V. injection 5 mg per dog
[10] = beagle, in vivo, API oral capsule 50 mg per dog
[11] = beagle, dog, plasma, iv, 6 mg, i.v. 6 mg, fasted condition
[12] = beagle, dog, plasma, po, 60 mg, API capsule oral 60 mg, fasted condition
[13] = beagle, dog, plasma, po, 60 mg, API capsule oral 60 mg, fed condition

- oral absorption (in words) ([1]; amorphous API, oral 50 mg, fasted dogs): poor absorption in fasted condition
- bioavailability ([1]; beagle, dog, in vivo, 50 mg per dog, oral 50 mg vs i.v. 5 mg, fasted dogs): ~6%
- AUC(0-inf) [1, 9]: 866 ng·h/mL
- AUC(0-t) [1, 9]: 588 ng·h/mL
- Cmax [1, 9]: 575 ng/mL
- AUC(0-inf) [1, 10]: 279 ng·h/mL
- AUC(0-t) [1, 10]: 162 ng·h/mL
- Cmax [1, 10]: 10.7 ng/mL
- enhancement of oral absorption, high-fat fed vs fasted condition [2]: about 6 folds
- food effect (in words) ([2]; fed vs fasted): significant food effect
- AUC(0-inf) ([2]; fasted condition): 278 ng·h/mL
- AUC(0-t) ([2]; fasted condition): 218 ng·h/mL
- Cmax ([2]; fasted condition): 7.6 ng/mL
- AUC(0-inf) ([2]; fed condition (high-fat food)): 1550 ng·h/mL
- AUC(0-t) ([2]; fed condition (high-fat food)): 1410 ng·h/mL
- Cmax ([2]; fed condition (high-fat food)): 56.5 ng/mL
- AUC(0-inf) [3]: 3000 ng·h/mL
- AUC(0-t) [3]: 2570 ng·h/mL
- Cmax [3]: 80.3 ng/mL
Structure (SMILES): N#Cc1ccc(O[C@H]2CC[C@H](NC(=O)c3ccc(N4CCC(CN5CCN(c6cc7c(cc6F)C(=O)N(C6CCC(=O)NC6=O)C7=O)CC5)CC4)nn3)CC2)cc1Cl (some centres unmarked) [ARV-110, N-((1r,4r)-4-(3-chloro-4-cyanophenoxy)cyclohexyl)-6-(4-((4-(2-(2,6-dioxopiperidin-3-yl)-6-fluoro-1,3-dioxoisoindolin-S-yl)piperazin-1-yl)methyl)piperidin-1-yl)pyridazine-3-carboxamide]
- dissolution in the aqueous solution (in words) [4]: very hard to dissolve in the aqueous solution
- Calculated log P [5]: 5.8^1

- enhancement of oral absorption by high-fat food ([6]; API oral 60 mg, fed vs fasted): 2 times
- oral absorption (in words) ([6]; amorphous API oral 60 mg, fasted dogs): poor absorption in fasted condition
- AUC(0-inf) [6, 11]: 3220 ng·h/mL
- AUC(0-t) [6, 11]: 3120 ng·h/mL
- Cmax [6, 11]: 609 ng/mL
- AUC(0-inf) [6, 12]: 2480 ng·h/mL
- AUC(0-t) [6, 12]: 2360 ng·h/mL
- Cmax [6, 12]: 200 ng/mL
- AUC(0-inf) [6, 13]: 5230 ng·h/mL
- AUC(0-t) [6, 13]: 5020 ng·h/mL
- Cmax [6, 13]: 428 ng/mL
- bioavailability ([6]; beagle, dog, plasma, oral 60 mg vs i.v. 6 mg, fasted dogs, read-out: absolute bioavailability): ~7%
- AUC(0-inf) [7]: 5840 ng·h/mL
- AUC(0-t) [7]: 5600 ng·h/mL
- Cmax [7]: 381 ng/mL
- enhancement of oral absorption by high-fat food vs fasted condition ([8]; API 200 mg oral): 2 times
- AUC(0-inf) ([8]; fasted condition): 7650 ng·h/mL
- AUC(0-t) ([8]; fasted condition): 7140 ng·h/mL
- Cmax ([8]; fasted condition): 415 ng/mL
- AUC(0-inf) ([8]; fed condition): 15600 ng·h/mL
- AUC(0-t) ([8]; fed condition): 14700 ng·h/mL
- Cmax ([8]; fed condition): 860 ng/mL
Structure (SMILES): O=C1CC[C@H](N2Cc3cc(N4CCN(CC5CCN(c6ccc([C@@H]7c8ccc(O)cc8CC[C@@H]7c7ccccc7)cc6)CC5)CC4)ccc3C2=O)C(=O)N1 [ARV-471, (3S)-3-[5-[4-[[1-[4-[(1R,2S)-6-hydroxy-2-phenyl-tetralin-1-yl]phenyl]-4-piperidyl]methyl]piperazin-1-yl]-1-oxo-isoindolin-2-yl]piperidine-2,6-dione]
- dissolution in the aqueous solution (in words) [4]: very hard to dissolve in the aqueous solution

Reference: US12350268B2, “Pharmaceutical compositions of PROTAC compounds and uses thereof” (Shenzhen Pharmacin Co., Ltd., priority 2022, dated 2025)
